The target of one experiment is T1, human GRα protein (Homo sapiens, UniProt P04150).
T1 construct: made in house; host or cells: insect cells infected with baculovirus; cytoplasm fraction used
T1 sequence (P04150 1-777): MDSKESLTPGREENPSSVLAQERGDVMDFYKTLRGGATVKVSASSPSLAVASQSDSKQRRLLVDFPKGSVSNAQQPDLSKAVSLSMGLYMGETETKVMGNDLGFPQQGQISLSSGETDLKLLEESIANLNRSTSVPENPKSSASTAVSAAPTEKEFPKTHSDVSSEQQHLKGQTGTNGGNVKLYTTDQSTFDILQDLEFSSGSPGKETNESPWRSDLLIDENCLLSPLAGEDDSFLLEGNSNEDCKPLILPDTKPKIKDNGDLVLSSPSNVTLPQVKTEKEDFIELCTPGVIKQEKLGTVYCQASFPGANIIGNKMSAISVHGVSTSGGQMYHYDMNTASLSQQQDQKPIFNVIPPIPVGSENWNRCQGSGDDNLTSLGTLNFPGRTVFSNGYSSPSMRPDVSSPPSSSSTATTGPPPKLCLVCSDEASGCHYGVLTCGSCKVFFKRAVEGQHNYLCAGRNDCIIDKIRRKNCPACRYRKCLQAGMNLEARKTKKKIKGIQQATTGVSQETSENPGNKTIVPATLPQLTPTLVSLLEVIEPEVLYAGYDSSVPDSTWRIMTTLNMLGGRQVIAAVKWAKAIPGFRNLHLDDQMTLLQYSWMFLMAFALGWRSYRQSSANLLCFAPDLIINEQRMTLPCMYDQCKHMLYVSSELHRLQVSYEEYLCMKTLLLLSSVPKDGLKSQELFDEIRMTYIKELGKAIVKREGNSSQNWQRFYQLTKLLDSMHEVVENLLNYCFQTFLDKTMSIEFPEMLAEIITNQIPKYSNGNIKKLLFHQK
Description: Binding inhibitory assay (displacement of 3H-dexamethasone from the cytoplasm fraction of baculovirus-infected insect cells). Conditions: read-out: Binding Inhibitory ratio (%) of 100 nM of test compound. How it is done:
Insect cells, which had been infected with baculovirus for expressing human GRα protein, were suspended in an approximately equal volume of a binding buffer (10 mM Tris-Cl, 1.5 mM EDTA, 10% glycerol, 5 mM DTT, 20 mM sodium molybdate, pH 7.6). The mixture was rapidly frozen with liquid nitrogen, and then melted at room temperature. This cycle was repeated totally twice in order to break the cell membrane. The mixture was ultracentrifuged under 100,000 g at 4° C. for one hour to give the supernatant, which was the cytoplasm fraction containing human GRα protein.
A polypropylene 96-well plate (manufactured by Costar Corporation, etc.) was placed on ice, and DMSO or a test compound (each 1 μl) was put into each well. A 10 nM ^3H-Dex solution (50 μl; tritiated dexamethasone; manufactured by Amersham) in the binding buffer, and a GR protein solution, i.e., a solution by diluting the above cytoplasm fraction with the binding buffer (50 μl) were added to each well, and the plate was lightly shaken with a plate mixer, and then left to stand at 4° C. for 16 to 20 hours (the final concentration of DMSO: 1%).
A 5% solution of dextran-coated active carbon (manufactured by Sigma) suspended in the binding buffer (50 μl) was put into each well, and the plate was lightly shaken with a plate mixer for 30 seconds. Then, the plate was centrifuged at 2500 rpm at 4° C. for 5 minutes, and the ^3H count in the supernatant (50 μl) was measured by a TopCount (manufactured by Perkin-Elmer Corporation). Each test compound was tested twice.
The binding activity was calculated as follows. The mean ^3H count in the presence of dexamethason (Dex) 10 μM was considered as NSB (non-specific binding), and the binding inhibitory ratio in each well was calculated by the following equation.
Binding Inhibitory Ratio (%)=100×{1−(cpm value of each well−NSB)/(mean cpm value of DMSO-well−NSB)}
(cpm means count per minute)
The mean binding inhibitory ratio of each well was calculated by the above equation to give a binding inhibitory ratio of each test compound.
On the technique in general: In a radioligand displacement assay an active substance lowers the binding of a labelled ligand.

A further experiment concerns H4-III-E cells. In words: TAT (tyrosine aminotransferase) assay. The experiment is classed as cell-based. Conditions: for activation at 10 µM / Agonistic activity of 10 μM test compound: 10 μM test compound alone, relative to maximum Dex-induced TAT activity (100%); for activation at 10 µM: read-out: Agonistic activity of 10 μM test compound; for Antagonistic activity of 10 μM test compound: 10 μM test compound together with 0.005 μM dexamethasone, inhibitory ratio against TAT activity increase by Dex. As to the method:
H4-III-E cells, which had been continuously cultured in α-MEM medium A (supplemented with 10% inactivated FBS, 50 μM 2-mercapto-ethanol), were suspended in α-MEM medium A or α-MEM medium B (supplemented with 10% inactivated FBS, 50 μM 2-mercapto-ethanol, but without phenol red), and the cell suspension was seeded to a 96-well plate in an amount of 2×10^4 cells/100 μl/well, and the cells were cultured overnight. The supernatant in the medium was removed, and a test compound (100 μl, diluted with α-MEM medium A or α-MEM medium B) was added, and the cells were further cultured overnight. In order to measure the agonistic activity, a test compound was added alone, while in order to measure the antagonistic activity, a test compound was added simultaneously together with 0.005 μM dexamethasone and evaluated the extent of the inhibitory effect of said test compound against the TAT activity-inducing activity by dexamethasone.
The culture supernatant in the plate was removed by suction, and a cell lysate (20 μL; 1% NP-40, 0.2% Triton X-100, 0.25% DOC, 0.1% SDS, 1 mM EGTA, 150 mM NaCl, Tris (pH7.4), Protease inhibitor cocktail [2.5 mg/ml aprotinin, 2.5 mg/ml leupeptin, 2.5 mg/ml soybean trypsin inhibitor]) was added, and further thereto was added a TAT reaction reagent (150 μL; 10 N KOH, 0.125 M KH2PO4, 0.5 M α-ketoglutarate, 5 mM Pyridoxal-5′ phosphate, L-tyrosine), and the mixture was reacted at 37° C. for 15 minutes. Further, a 10N KOH (20 μL) was added thereto, and the mixture was reacted at 37° C. for 30 minutes, and the absorbance at 331 nm was measured by a microplate reader (SPECTRA MAX 250).
From the mean absorbance in the wells to which a test compound was added, the mean absorbance in the wells to which a compound and a TAT reaction solution were not added was subtracted.
Agonistic activity (%)=100×[(absorbance of the drug-treated group)−(absorbance of the group without TAT reaction reagent)]/[(absorbance of Dex-treated group)−(absorbance of the group without TAT reaction reagent)]
On the other hand, the antagonistic activity was calculated as follows.
Antagonistic activity (%)=Inhibitory ratio (%) against TAT activity increase by Dex=100−100×[(absorbance of the drug-treated group)−(absorbance of the group without a drug)]/[(absorbance of Dex-treated group)−(absorbance of the group without a drug)]
With regard to the agonistic activity and the antagonistic activity, the results of 10% or more were expressed as O, while the results of less than 10% were expressed as X.

The mark [1] stands for this setting: 100 nM test compound, 3H-Dex, NSB with 10 μM dexamethasone.

This is an account of results in patent publication US20100190768A1, “NOVEL FUSED PYROLE DERIVATIVE” (Dainippon Sumitomo Pharma Co., Ltd., priority 2005, published 2010).

Where two headings read alike, the source gives them in different places.

Consider `O=[N+]([O-])c1ccc2c(C(O)(CN3CCC(Nc4ccccc4)CC3)C(F)(F)F)cn(Cc3ccccc3)c2c1` (stereo not drawn) [Example 185, 3-(4-Anilinopiperidin-1-yl)-2-(1-benzyl-6-nitro-1H-indol-3-yl)-1,1,1-trifluoropropan-2-ol], for which the inhibition at 0.1 µM on human GRα protein (setting [1]) was found to be 82%. In the experiment with H4-III-E cells, the activation at 10 µM is below 10% and the “Antagonistic activity of 10 μM test compound” value (“Antagonistic activity” below) is “◯”.

For the compound `CN(C(=O)C1CCN(CC(O)(c2cn(Cc3ccccc3)c3cc([N+](=O)[O-])ccc23)C(F)(F)F)CC1)c1ccccc1` (stereo not drawn) [Example 95, 1-[2-(1-Benzyl-6-nitro-1H-indol-3-yl)-3,3,3-trifluoro-2-hydroxypropyl]-N-methyl-N-phenylpiperidine-4-carboxamide], the inhibition at 0.1 µM at human GRα protein (setting [1]) came to 59%. Moreover, in the experiment on H4-III-E cells, the activation at 10 µM is below 10% and the “Antagonistic activity” value is “◯”.

With `O=C(O)c1ccc(OC2CCN(CC(O)(c3cn(Cc4ccccc4)c4cc([N+](=O)[O-])ccc34)C(F)(F)F)CC2)cc1` (stereo not drawn) [Example 178, 4-({1-[2-(1-Benzyl-6-nitro-1H-indol-3-yl)-3,3,3-trifluoro-2-hydroxypropyl]-piperidin-4-yl}oxy)benzoic acid], the inhibition at 0.1 µM on human GRα protein (setting [1]) amounted to 95%. Further, in the experiment with H4-III-E cells, the “Agonistic activity of 10 μM test compound” value is reported as “◯” and the “Antagonistic activity” value was “◯”.

As to `COC(CN1CCC(C(=O)c2ccccc2)CC1)(c1cn(Cc2ccccc2)c2cc([N+](=O)[O-])ccc12)C(F)(F)F` (stereo not drawn) [Example 153, {1-[2-(1-Benzyl-6-nitro-1H-indol-3-yl)-3,3,3-trifluoro-2-methoxypropyl]piperidin-4-yl}(phenyl)methanone], at human GRα protein (setting [1]), the inhibition at 0.1 µM amounted to 91%. Moreover, in the experiment with H4-III-E cells, the “Agonistic activity of 10 μM test compound” value is listed as “◯” and the “Antagonistic activity” value was “◯”.

`O=[N+]([O-])c1ccc2c(C(O)(CN3CCCC(O)C3)C(F)(F)F)cn(Cc3ccccc3)c2c1` (stereo not drawn) [Example 165, 1-[2-(1-Benzyl-6-nitro-1H-indol-3-yl)-3,3,3-trifluoro-2-hydroxypropyl]piperidin-3-ol]: at human GRα protein (setting [1]), the inhibition at 0.1 µM was determined as 95%. For the same compound, in the experiment with H4-III-E cells, the “Agonistic activity of 10 μM test compound” value is given as “◯” and the “Antagonistic activity” value is reported as “◯”.

For the compound `CCOC(=O)C(O)(c1cn(Cc2ccccc2)c2cc([N+](=O)[O-])ccc12)C(F)(F)F` (stereo not drawn) [Example 2, Ethyl 2-(1-benzyl-6-nitro-1H-indol-3-yl)-3,3,3-trifluoro-2-hydroxypropanoate], the inhibition at 0.1 µM at human GRα protein was 87%. In addition, in the experiment on H4-III-E cells, the activation at 10 µM is below 10% and the “Antagonistic activity” value is “◯”.

With `O=C(O)Cc1ccc(OC2CCN(CC(O)(c3cn(Cc4ccccc4)c4cc([N+](=O)[O-])ccc34)C(F)(F)F)CC2)cc1` (stereo not drawn) [Example 180, [4-({1-[2-(1-Benzyl-6-nitro-1H-indol-3-yl)-3,3,3-trifluoro-2-hydroxypropyl]-piperidin-4-yl}oxy)phenyl]acetic acid], the inhibition at 0.1 µM on human GRα protein (setting [1]) was 98%. Further, in the experiment with H4-III-E cells, the “Agonistic activity of 10 μM test compound” value is recorded as “◯” and the “Antagonistic activity” value is “◯”.

Turning to `O=[N+]([O-])c1ccc2c(C(O)(CN3CCN(c4ccccc4)CC3)C(F)(F)F)cn(Cc3ccccc3)c2c1` (stereo not drawn) [Example 75, 2-(1-Benzyl-6-nitro-1H-indol-3-yl)-1,1,1-trifluoro-3-(4-phenylpiperazin-1-yl)propan-2-ol], the inhibition at 0.1 µM at human GRα protein (setting [1]) was 96%. Further, in the experiment on H4-III-E cells, the “Agonistic activity of 10 μM test compound” value is on record as “◯” and the “Antagonistic activity” value is given as “◯”.

Consider `O=[N+]([O-])c1ccc2c(C(O)(CNCc3ccccc3)C(F)(F)F)cn(Cc3ccccc3)c2c1` (stereo not drawn) [Example 137, 3-(Benzylamino)-2-(1-benzyl-6-nitro-1H-indol-3-yl)-1,1,1-trifluoropropan-2-ol], for which the inhibition at 0.1 µM at human GRα protein (setting [1]) was 92%. For the same compound, in the experiment with H4-III-E cells, the “Agonistic activity of 10 μM test compound” value is on record as “◯” and the “Antagonistic activity” value is listed as “◯”.

As for `O=[N+]([O-])c1ccc2c(C(O)(CN3CCC(O)CC3)C(F)(F)F)cn(Cc3ccccc3)c2c1` (stereo not drawn) [Example 78, 1-[2-(1-Benzyl-6-nitro-1H-indol-3-yl)-3,3,3-trifluoro-2-hydroxypropyl]piperidin-4-ol], the inhibition at 0.1 µM on human GRα protein (setting [1]) worked out at 81%. In the experiment with H4-III-E cells, the “Agonistic activity of 10 μM test compound” value is “◯” and the “Antagonistic activity” value is recorded as “◯”.

On to `O=[N+]([O-])c1ccc2c(C(O)(CNCCOc3ccccc3)C(F)(F)F)cn(Cc3ccccc3)c2c1` (stereo not drawn) [Example 133, 2-(1-Benzyl-6-nitro-1H-indol-3-yl)-1,1,1-trifluoro-3-[(2-phenoxyethyl)amino]-propan-2-ol], for which the inhibition at 0.1 µM at human GRα protein (setting [1]) was determined as 51%. In the experiment on H4-III-E cells, the activation at 10 µM was below 10% and the “Antagonistic activity” value is reported as “◯”.

With `O=[N+]([O-])c1ccc2c(C(O)(CN3CCC(Oc4ccccc4Cl)CC3)C(F)(F)F)cn(Cc3ccccc3)c2c1` (stereo not drawn) [Example 119, 2-(1-Benzyl-6-nitro-1H-indol-3-yl)-3-[4-(2-chlorophenoxy)piperidin-1-yl]-1,1,1-trifluoropropan-2-ol], on human GRα protein (setting [1]), the inhibition at 0.1 µM turned out to be 78%. In the experiment on H4-III-E cells, the “Agonistic activity of 10 μM test compound” value is “◯” and the “Antagonistic activity” value is given as “◯”.

For `CCOC(=O)Cc1ccc(OC2CCN(CC(O)(c3cn(Cc4ccccc4)c4cc([N+](=O)[O-])ccc34)C(F)(F)F)CC2)cc1` (stereo not drawn) [Example 179], at human GRα protein (setting [1]), the inhibition at 0.1 µM was determined as 81%. In the experiment with H4-III-E cells, the “Agonistic activity of 10 μM test compound” value was “◯” and the “Antagonistic activity” value was “◯”.
